Literature values as cited in patent US20240325431A1, “COMPOSITION FOR PURIFICATION OF BIOFLUIDS” (BEACON MEDCARE (HK) LIMITED, priority 2018, published 2024).

Tested on: plasma protein

Compound	binding rate to plasma protein
C[C@H]1O[C@@H](O[C@H]2[C@@H](O)C[C@H](O[C@H]3[C@@H](O)C[C@H](O[C@H]4CC[C@@]5(C)[C@H](CC[C@@H]6[C@@H]5CC[C@]5(C)[C@@H](C7=CC(=O)OC7)CC[C@]65O)C4)O[C@@H]3C)O[C@@H]2C)C[C@H](O)[C@@H]1O [digitoxin]	91%
CN1C(C(=O)Nc2ccccn2)=C(O)c2sccc2S1(=O)=O [tenoxicam]	99%
